We go through one compound from ChEMBL document CHEMBL4425144, “Discovery and Structural Optimization of N5-Substituted 6,7-Dioxo-6,7-dihydropteridines as Potent and Selective Epidermal Growth Factor Receptor (EGFR) Inhibitors against L858R/T790M Resistance Mutation” (J Med Chem, 2016).

Data set [1] is described as follows: Oral bioavailability in ICR mouse at 10 mg/kg by LC-MS/MS method. The data set is classed as ADME, organism-based. Conditions: in vivo.
In another data set the test system is NCI-H1975. The data set is described as follows: Antitumor activity against human NCI-H1975 cells xenografted in BALB/c mouse assessed as inhibition of tumor growth at 50 mg/kg, po qd for 14 consecutive days. Conditions: read-out: TGI. The data set is classed as functional. For orientation: Xenograft models place foreign cells or tissue in a host animal.
Data set [2] has as its target Epidermal growth factor receptor (Homo sapiens, UniProt P00533, L858R/T790M). Description: Inhibition of EGFR kinase domain L858R/T790M mutant (unknown origin) expressed using baculovirus expression system incubated for 1 hr using Poly(Glu,Tyr) 4:1 by ELISA method.
Data set [3] is described as follows: Half life in mouse liver microsomes at 1 uM in presence of NADPH by LC-MS/MS method. The data set is classed as ADME, Microsome. Background: Microsomes from liver hold many membrane-bound enzymes, among them those of drug oxidation.
The target of data set [4] is T1, Tyrosine-protein kinase TXK (Homo sapiens) (UniProt P42681).
T1 sequence (whole entry): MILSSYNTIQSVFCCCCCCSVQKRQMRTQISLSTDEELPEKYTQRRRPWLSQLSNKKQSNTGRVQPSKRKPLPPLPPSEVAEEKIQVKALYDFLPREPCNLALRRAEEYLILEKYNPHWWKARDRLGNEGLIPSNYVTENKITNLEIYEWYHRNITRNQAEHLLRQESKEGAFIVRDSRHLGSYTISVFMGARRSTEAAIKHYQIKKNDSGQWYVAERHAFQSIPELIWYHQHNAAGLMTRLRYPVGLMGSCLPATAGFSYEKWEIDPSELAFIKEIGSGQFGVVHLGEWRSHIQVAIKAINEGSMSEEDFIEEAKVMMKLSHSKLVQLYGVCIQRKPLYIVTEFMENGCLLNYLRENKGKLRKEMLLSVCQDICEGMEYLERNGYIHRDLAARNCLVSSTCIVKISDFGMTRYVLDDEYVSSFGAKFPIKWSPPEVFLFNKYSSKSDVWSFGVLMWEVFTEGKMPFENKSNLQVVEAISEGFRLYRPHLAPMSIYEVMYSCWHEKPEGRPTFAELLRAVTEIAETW
Description: Inhibition of human TXK expressed in bacterial system assessed as remaining enzyme activity at 1000 nM relative to untreated control.

Data set [5] is described as follows: Dissociation constant, pKa of the compound by Sirius T3 based assay. The data set is classed as physicochemical.
Data set [6] is described as follows: Tmax in ICR mouse at 1 mg/kg, iv by LC-MS/MS method. The data set is classed as ADME, organism-based. The note with it: in vivo.
In the next data set the test system is Mus musculus. The data set is described as follows: Inhibition of EGFR kinase domain L858R/T790M mutant phosphorylation in human NCI-H1975 cells xenografted BALB/c mouse at 50 mg/kg, po qd for 14 consecutive days by Western blot method. The data set is classed as functional, organism-based.
Data set [7] in a line: Cmax in ICR mouse at 1 mg/kg, iv by LC-MS/MS method. The arrangement: dose 1 mg/kg, route intravenous. The data set is classed as ADME, organism-based. The note with it: in vivo.
The target of data set [8] is Epidermal growth factor receptor (Homo sapiens, UniProt P00533). Description: Inhibition of wild type EGFR kinase domain (unknown origin) expressed using baculovirus expression system incubated for 1 hr using Poly(Glu,Tyr) 4:1 by ELISA method. For orientation: In an ELISA, binding on a coated surface is turned into a signal by an enzyme label.
Chain of Epidermal growth factor receptor (Homo sapiens, UniProt P00533) (P00533 whole entry, the tested form may be a part): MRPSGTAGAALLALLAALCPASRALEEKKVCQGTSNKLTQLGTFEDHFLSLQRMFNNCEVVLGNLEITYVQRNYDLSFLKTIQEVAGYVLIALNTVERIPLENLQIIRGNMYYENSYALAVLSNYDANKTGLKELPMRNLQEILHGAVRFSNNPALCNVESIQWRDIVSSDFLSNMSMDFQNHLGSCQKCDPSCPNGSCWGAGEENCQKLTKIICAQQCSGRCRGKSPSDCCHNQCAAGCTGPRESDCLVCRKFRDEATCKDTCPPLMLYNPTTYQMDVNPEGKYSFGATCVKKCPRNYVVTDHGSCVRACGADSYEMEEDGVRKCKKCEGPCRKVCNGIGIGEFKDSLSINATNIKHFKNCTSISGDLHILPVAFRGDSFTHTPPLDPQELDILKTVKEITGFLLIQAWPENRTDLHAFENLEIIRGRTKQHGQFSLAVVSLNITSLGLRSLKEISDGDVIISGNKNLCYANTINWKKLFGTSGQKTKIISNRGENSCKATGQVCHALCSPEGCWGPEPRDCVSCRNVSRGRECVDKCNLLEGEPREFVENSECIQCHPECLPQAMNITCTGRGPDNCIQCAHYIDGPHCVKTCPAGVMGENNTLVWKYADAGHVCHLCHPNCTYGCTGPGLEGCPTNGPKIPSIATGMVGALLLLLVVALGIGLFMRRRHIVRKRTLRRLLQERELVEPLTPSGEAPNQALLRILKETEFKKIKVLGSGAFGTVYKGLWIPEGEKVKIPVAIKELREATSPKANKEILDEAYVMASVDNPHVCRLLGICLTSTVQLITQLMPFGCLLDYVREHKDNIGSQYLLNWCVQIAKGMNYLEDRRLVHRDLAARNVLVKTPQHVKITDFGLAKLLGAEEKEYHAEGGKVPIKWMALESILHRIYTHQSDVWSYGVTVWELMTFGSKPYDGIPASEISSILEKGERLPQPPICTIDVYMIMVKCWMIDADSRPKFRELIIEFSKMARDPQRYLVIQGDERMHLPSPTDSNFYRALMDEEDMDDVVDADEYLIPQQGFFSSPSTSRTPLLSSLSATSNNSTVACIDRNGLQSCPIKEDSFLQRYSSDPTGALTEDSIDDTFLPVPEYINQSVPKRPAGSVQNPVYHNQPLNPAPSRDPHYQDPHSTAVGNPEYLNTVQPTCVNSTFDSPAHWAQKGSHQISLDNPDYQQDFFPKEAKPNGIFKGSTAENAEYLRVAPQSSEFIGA
For data set [9], the target named is T2, Mitogen-activated protein kinase kinase kinase 6 (Homo sapiens) (UniProt O95382).
T2 sequence (whole entry): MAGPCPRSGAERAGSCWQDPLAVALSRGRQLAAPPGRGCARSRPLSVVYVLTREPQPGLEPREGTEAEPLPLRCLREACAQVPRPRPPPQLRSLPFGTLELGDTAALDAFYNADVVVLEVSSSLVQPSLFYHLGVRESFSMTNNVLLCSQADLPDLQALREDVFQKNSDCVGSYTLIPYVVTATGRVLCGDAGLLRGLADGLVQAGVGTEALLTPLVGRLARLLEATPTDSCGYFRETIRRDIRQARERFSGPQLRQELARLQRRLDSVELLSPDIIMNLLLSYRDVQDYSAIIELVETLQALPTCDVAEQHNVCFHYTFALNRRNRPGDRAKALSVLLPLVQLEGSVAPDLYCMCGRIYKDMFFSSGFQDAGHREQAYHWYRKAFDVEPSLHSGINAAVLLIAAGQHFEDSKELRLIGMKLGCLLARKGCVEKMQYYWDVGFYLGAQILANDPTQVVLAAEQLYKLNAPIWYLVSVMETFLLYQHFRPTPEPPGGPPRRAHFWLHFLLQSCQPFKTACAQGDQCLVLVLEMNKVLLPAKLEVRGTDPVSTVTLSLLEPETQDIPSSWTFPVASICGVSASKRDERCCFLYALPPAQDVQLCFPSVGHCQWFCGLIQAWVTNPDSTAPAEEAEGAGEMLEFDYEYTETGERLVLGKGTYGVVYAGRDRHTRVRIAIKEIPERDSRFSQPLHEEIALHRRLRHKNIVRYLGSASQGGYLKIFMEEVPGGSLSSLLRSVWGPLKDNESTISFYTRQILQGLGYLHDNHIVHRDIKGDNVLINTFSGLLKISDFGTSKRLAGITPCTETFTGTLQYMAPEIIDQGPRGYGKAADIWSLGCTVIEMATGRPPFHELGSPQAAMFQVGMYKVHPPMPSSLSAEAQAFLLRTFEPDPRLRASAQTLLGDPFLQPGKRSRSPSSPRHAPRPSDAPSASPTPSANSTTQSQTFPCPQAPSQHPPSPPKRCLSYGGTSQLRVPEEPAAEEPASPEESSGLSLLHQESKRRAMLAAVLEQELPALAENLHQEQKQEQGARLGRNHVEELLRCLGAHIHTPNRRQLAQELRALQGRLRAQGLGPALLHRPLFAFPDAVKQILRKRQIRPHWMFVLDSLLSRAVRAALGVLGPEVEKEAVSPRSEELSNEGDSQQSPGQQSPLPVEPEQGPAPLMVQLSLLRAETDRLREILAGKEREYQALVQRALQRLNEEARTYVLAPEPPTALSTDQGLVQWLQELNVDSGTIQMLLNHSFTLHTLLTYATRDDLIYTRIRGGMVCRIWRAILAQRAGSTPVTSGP
Description: Inhibition of human ASK2 expressed in mammalian system assessed as remaining enzyme activity at 1000 nM relative to untreated control.

SMILES strings stand for the structures. The source made the active and inactive calls. The calls are words filed in the database; no cut-off is given here. Where only a bound is given, the exact number is not on record here.

Chain of Epidermal growth factor receptor (Homo sapiens, UniProt P00533, L858R/T790M) (P00533 25-1210 T790M/L858R limits assumed): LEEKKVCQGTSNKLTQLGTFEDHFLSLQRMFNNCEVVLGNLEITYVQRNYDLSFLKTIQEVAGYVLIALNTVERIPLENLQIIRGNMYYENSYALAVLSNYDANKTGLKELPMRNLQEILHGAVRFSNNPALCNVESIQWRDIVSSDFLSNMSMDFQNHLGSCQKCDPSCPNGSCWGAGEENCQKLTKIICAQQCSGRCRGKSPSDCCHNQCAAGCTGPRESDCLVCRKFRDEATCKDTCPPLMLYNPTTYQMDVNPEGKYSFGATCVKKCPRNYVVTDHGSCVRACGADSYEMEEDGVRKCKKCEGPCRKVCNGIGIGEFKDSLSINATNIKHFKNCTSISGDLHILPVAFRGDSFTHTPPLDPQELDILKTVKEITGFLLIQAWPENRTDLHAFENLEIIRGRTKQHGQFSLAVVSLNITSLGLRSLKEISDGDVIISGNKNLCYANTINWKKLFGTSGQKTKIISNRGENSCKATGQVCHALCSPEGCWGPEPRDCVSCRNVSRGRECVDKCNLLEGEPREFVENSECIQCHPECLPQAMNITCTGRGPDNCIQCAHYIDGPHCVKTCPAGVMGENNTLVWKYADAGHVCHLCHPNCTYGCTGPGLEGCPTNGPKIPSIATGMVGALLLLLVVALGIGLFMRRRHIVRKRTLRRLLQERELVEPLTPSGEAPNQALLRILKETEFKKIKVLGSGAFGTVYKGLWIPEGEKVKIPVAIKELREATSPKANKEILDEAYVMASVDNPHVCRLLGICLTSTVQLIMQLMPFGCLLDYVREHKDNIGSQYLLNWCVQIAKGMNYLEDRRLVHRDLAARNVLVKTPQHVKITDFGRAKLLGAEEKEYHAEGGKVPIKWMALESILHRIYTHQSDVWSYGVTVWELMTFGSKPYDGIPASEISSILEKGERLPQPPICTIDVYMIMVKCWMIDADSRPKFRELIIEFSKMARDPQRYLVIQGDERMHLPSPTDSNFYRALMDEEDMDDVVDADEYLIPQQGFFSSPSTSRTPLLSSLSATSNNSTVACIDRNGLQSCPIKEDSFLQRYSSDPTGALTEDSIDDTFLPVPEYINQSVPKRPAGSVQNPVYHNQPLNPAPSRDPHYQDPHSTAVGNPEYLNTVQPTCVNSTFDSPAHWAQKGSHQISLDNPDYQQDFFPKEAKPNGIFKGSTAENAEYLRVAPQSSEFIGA

As a reminder, the bioavailability is the share of a dose that reaches the circulation, judged against a reference dose that is usually intravenous. The low end stands for little systemic uptake, the high end for much systemic uptake. Broadly, the IC50 is the concentration needed to halve the response being measured. Lower therefore signals greater potency in that assay. As usually defined, the half-life is the time in which the quantity being followed falls by half. What is called pKa is the negative logarithm of the acid dissociation constant. Higher therefore signals a group that holds its proton tightly. By Tmax is commonly meant the time at which the peak concentration occurs. Broadly, the Cmax is the highest concentration seen after dosing. Compound `C=CC(=O)Nc1cccc(-n2c(=O)c(=O)n(C(C)C)c3cnc(Nc4ccc(N5CCN(C)CC5)cc4OC)nc32)c1` displayed a bioavailability in data set [1] of 48%. In addition, the inhibition in vivo at 50 mg/kg with NCI-H1975 was 52%. Further, the figures for the IC50 in data set [2] and in [8] were 0.3 nM and 2 nM, respectively. For the same compound, the half-life at 1 µM in data set [3] came to 51 min. For the same compound, the Activity in data set [4] and in data set [9] was less than 1% each time. Also, the pKa in data set [5] stood at 7.7. Besides, in [6], the Tmax was 54 min. Besides, the inhibition entry with Mus musculus is “Active”. The Cmax in data set [7] turned out to be 258 ng/mL.
